Calls of active or inactive are those of the source. The calls are words filed in the database; no cut-off is given here.
How the values were obtained:
RAW264.7 [1] = assay: Inhibition of LPS-induced NO production in mouse RAW264.7 cells preincubated for 2 hrs followed by LPS stimulation for 24 hrs by Griess reagent based assay; assay type: functional, cell-based
RAW264.7 [2] = assay: Cytotoxicity against mouse RAW264.7 cells assessed as effect on cell viability up to 20 uM measured after 24 hrs by CCK8 assay; assay type: cell-based; conditions: raw264.7, 24 h
RAW264.7 [3] = assay: Anti-inflammatory activity against LPS-stimulated mouse RAW264.7 cells assessed as decrease in IL-6 production at 0.75 to 3 uM preincubated for 2 hrs followed by LPS stimulation and measured after 24 hrs by ELISA assay; assay type: functional, cell-based; conditions: dose 0.75-3 µM, time 26.0 hrs
RAW264.7 [4] = assay: Inhibition of ERK phosphorylation in LPS-induced mouse RAW264.7 cells at 0.75 to 3 uM preincubated for 2 hrs followed by LPS stimulation and measured after 30 mins by immunoblotting assay; conditions: dose 0.75-3 µM, time 150.0 min
[5] = biological target: T1, Inhibitor of nuclear factor kappa-B kinase subunit alpha/beta (Mus musculus) (UniProt Q60680+O88351); assay: Inhibition of IKKalpha/beta phosphorylation in LPS-induced mouse RAW264.7 cells incubated for 2 hrs followed by LPS stimulation and measured after 5 mins by immunoblotting assay; conditions: dose 0.75-3 µM, time 125.0 min
[6] = biological target: MAP kinase p38 (Mus musculus) (UniProt P47811+O08911+Q9WUI1+Q9Z1B7); assay: Inhibition of p38 MAPK phosphorylation in LPS-induced mouse RAW264.7 cells at 0.75 to 3 uM preincubated for 2 hrs followed by LPS stimulation and measured after 30 mins by immunoblotting assay; conditions: dose 0.75-3 µM, time 150.0 min
[7] = biological target: T1, Inhibitor of nuclear factor kappa-B kinase subunit alpha/beta (Mus musculus); assay: Inhibition of IKKalpha/beta in LPS-stimulated mouse RAW264.7 cells assessed as decrease in IkappaB degradation at 3 uM preincubated for 2 hrs followed by LPS stimulation for 10 mins by immunoblotting assay; conditions: time 130.0 min
[8] = biological target: T1, Inhibitor of nuclear factor kappa-B kinase subunit alpha/beta (Mus musculus); assay: Inhibition of IKKalpha/beta in LPS-stimulated mouse RAW264.7 cells assessed as inhibition of IkappaB alpha phosphorylation at 3 uM preincubated with DTT for 30 mins and later incubated with cells for 2 hrs followed by LPS stimulation for 5 mins by immunoblot anlaysis; conditions: time 155.0 min
RAW264.7 [9] = assay: Inhibition of LPS-induced iNOS protein expression in mouse RAW264.7 cells at 0.75 to 3 uM preincubated for 2 hrs followed by LPS stimulation for 24 hrs by Western blot analysis; assay type: functional, cell-based; conditions: dose 0.75-3 µM, time 26.0 hrs
[10] = biological target: T1, Inhibitor of nuclear factor kappa-B kinase subunit alpha/beta (Mus musculus); assay: Inhibition of IKKalpha/beta in LPS-stimulated mouse RAW264.7 cells assessed as inhibition of NFkB p65 nuclear translocation at 3 uM preincubated for 2 hrs followed by LPS stimulation for 30 mins by immunoblotting assay; conditions: time 150.0 min
[11] = biological target: Inhibitor of NF-kappa-B kinase alpha/beta (Homo sapiens) (UniProt O14920+O15111); assay: Inhibition of IKKalpha/beta in human HEK293T cells assessed as reduction in thermal stability at 50 uM incubated for 30 mins followed by heating at temperature between 58 to 60 degC for 3 mins by CETSA analysis; assay type: cell-based; conditions: time 33.0 min
[12] = biological target: T1, Inhibitor of nuclear factor kappa-B kinase subunit alpha/beta (Mus musculus); assay: Inhibition of IKKalpha/beta in LPS-stimulated mouse RAW264.7 cells assessed as inhibition of IkappaB alpha phosphorylation preincubated for 2 hrs followed by LPS stimulation for 5 mins by immunoblot anlaysis; conditions: dose 0.75-3 µM, time 125.0 min
[13] = biological target: c-Jun N-terminal kinase (Mus musculus) (UniProt Q91Y86+Q9WTU6+Q61831); assay: Inhibition of JNK phosphorylation in LPS-induced mouse RAW264.7 cells at 0.75 to 3 uM preincubated for 2 hrs followed by LPS stimulation and measured after 30 mins by immunoblotting assay; conditions: dose 0.75-3 µM, time 150.0 min
Sequence of c-Jun N-terminal kinase (Mus musculus) (Q61831 whole entry, looked up): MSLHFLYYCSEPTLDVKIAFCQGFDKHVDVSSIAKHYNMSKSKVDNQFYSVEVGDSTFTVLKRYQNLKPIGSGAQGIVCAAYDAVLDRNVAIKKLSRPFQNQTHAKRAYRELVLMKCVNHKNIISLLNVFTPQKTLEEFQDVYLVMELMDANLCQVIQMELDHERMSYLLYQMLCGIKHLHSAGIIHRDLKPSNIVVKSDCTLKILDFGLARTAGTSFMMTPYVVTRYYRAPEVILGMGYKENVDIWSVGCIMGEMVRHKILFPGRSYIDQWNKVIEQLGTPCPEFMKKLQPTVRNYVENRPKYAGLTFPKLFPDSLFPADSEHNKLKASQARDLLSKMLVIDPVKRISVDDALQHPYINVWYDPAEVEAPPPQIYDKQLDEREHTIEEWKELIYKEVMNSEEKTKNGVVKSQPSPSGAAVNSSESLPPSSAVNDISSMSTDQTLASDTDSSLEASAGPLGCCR
Sequence of c-Jun N-terminal kinase (Mus musculus) (Q91Y86 whole entry, looked up): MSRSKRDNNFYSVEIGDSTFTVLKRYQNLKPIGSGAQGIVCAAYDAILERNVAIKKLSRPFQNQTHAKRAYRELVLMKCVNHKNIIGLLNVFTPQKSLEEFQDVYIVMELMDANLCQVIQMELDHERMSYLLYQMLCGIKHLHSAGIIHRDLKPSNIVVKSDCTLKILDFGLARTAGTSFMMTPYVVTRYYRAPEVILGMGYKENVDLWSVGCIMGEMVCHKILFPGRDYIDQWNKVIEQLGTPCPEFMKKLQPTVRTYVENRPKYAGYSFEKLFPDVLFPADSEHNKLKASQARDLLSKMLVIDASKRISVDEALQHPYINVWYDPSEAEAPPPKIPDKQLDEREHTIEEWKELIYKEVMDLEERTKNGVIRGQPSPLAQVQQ
Sequence of c-Jun N-terminal kinase (Mus musculus) (Q9WTU6 whole entry, looked up): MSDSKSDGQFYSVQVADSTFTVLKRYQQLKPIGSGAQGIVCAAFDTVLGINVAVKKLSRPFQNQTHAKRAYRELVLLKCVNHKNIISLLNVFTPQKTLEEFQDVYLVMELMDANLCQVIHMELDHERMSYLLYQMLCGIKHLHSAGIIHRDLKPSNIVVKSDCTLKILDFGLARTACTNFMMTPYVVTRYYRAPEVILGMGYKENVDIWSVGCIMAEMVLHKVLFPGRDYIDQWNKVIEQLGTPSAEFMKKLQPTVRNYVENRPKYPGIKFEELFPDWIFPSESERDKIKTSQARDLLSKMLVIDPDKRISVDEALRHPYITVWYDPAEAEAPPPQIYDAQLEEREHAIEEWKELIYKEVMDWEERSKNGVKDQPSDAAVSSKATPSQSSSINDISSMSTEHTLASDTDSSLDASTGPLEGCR

RAW264.7 [14] = assay: Inhibition of LPS-induced NO production in mouse RAW264.7 cells at 3 uM preincubated with DTT for 30 mins and later incubated with cells for 2 hrs followed by LPS stimulation for 24 hrs by Griess-reagent based assay; assay type: functional, cell-based; conditions: time 1590.0 min
RAW264.7 [15] = assay: Inhibition of LPS-induced PGE2 production in mouse RAW264.7 cells preincubated for 2 hrs followed by LPS stimulation and measured after 24 hrs by ELISA assay; assay type: functional, cell-based; conditions: dose 0.75-3 µM, time 26.0 hrs
[16] = Covalent binding affinity to dithiothreitol assessed as compound-DTT adduct formation at 50 uM incubated for 30 mins by UPLC-MS analysis
RAW264.7 [17] = assay: Anti-inflammatory activity against LPS-stimulated mouse RAW264.7 cells assessed as decrease in TNF-alpha production at 0.75 to 3 uM preincubated for 2 hrs followed by LPS stimulation and measured after 24 hrs by ELISA assay; assay type: functional, cell-based; conditions: dose 0.75-3 µM, time 26.0 hrs
RAW264.7 [18] = assay: Anti-inflammatory activity against LPS-stimulated mouse RAW264.7 cells assessed as decrease in IL-1 beta production at 0.75 to 3 uM preincubated for 2 hrs followed by LPS stimulation and measured after 24 hrs by ELISA assay; assay type: functional, cell-based; conditions: dose 0.75-3 µM, time 26.0 hrs
[19] = biological target: T1, Inhibitor of nuclear factor kappa-B kinase subunit alpha/beta (Mus musculus); assay: Inhibition of IKKalpha/beta in LPS-stimulated mouse RAW264.7 cells assessed as inhibition of IkappaB alpha degradation at 3 uM preincubated with DTT for 30 mins and later incubated with cells for 2 hrs followed by LPS stimulation for 10 mins by immunoblot anlaysis; conditions: time 160.0 min
RAW264.7 [20] = assay: Inhibition of LPS-induced COX2 protein expression in mouse RAW264.7 cells at 0.75 to 3 uM preincubated for 2 hrs followed by LPS stimulation for 24 hrs by Western blot analysis; assay type: functional, cell-based; conditions: dose 0.75-3 µM, time 26.0 hrs
RAW264.7 [21] = assay: Inhibition of LPS-induced PGE2 production in mouse RAW264.7 cells at 3 uM preincubated for 2 hrs followed by LPS stimulation and measured after 24 hrs by ELISA assay; assay type: functional, cell-based; conditions: time 26.0 hrs
RAW264.7 [22] = assay: Anti-inflammatory activity against LPS-stimulated mouse RAW264.7 cells assessed as decrease in IL-1 beta production at 3 uM preincubated for 2 hrs followed by LPS stimulation and measured after 24 hrs by ELISA assay; assay type: functional, cell-based; conditions: time 26.0 hrs
RAW264.7 [23] = assay: Inhibition of LPS-induced NO production in mouse RAW264.7 cells at 3 uM incubated for 2 hrs followed by LPS stimulation and measured after 24 hrs by Griess reagent based assay; assay type: functional, cell-based; conditions: time 26.0 hrs
RAW264.7 [24] = assay: Anti-inflammatory activity against LPS-stimulated mouse RAW264.7 cells assessed as decrease in TNF-alpha production at 3 uM preincubated for 2 hrs followed by LPS stimulation and measured after 24 hrs by ELISA assay; assay type: functional, cell-based; conditions: time 26.0 hrs
RAW264.7 [25] = assay: Anti-inflammatory activity against LPS-stimulated mouse RAW264.7 cells assessed as decrease in IL-6 production at 3 uM preincubated for 2 hrs followed by LPS stimulation and measured after 24 hrs by ELISA assay; assay type: functional, cell-based; conditions: time 26.0 hrs

SMILES	IC50 (RAW264.7 [1])	Activity (RAW264.7 [2])	also measured
C=C1C(=O)O[C@@H]2/C=C3/CC/C=C(\[C@H](O)OC3)[C@H](OC)[C@@H](OC(=O)/C(C)=C\C)[C@@H]12	> 20 µM	Non-Toxic	
C=C1C(=O)O[C@@H]2/C=C(\CO)CC/C=C(\C=O)[C@H](OC)[C@@H](OC(=O)C(C)C)[C@@H]12	> 20 µM	Non-Toxic	
C=C1C(=O)O[C@H]2[C@H]1[C@H](OC(=O)/C(C)=C\C)[C@@H](OC)C(=O)[C@@H]1CC[C@@](O)(CO)[C@H]21	> 20 µM	Non-Toxic	
C=C1C(=O)O[C@@H]2/C=C(\CO)CC/C=C(\C=O)[C@H](OC(C)=O)[C@@H](OC(=O)/C(C)=C/C)[C@@H]12	> 20 µM	Non-Toxic	
C=C(C)C(=O)O[C@H]1[C@H]2C(=C)C(=O)O[C@@H]2/C=C(\CO)CC/C=C(\CO)[C@@H]1OC(C)=O	9.9 µM	Non-Toxic	
C=C(C)C(=O)O[C@@H]1C=C(C=O)[C@@H]2CC[C@@](O)(CO)[C@@H]2[C@H]2OC(=O)C(=C)[C@@H]21	15.4 µM	Non-Toxic	
C=C1C(=O)O[C@@H]2/C=C(\CO)CC/C=C(\CO)[C@H](OC(C)=O)[C@@H](OC(=O)/C(C)=C/C)[C@@H]12	10 µM	Non-Toxic	
C=C1C(=O)O[C@H]2[C@H]1[C@H](OC(=O)/C(C)=C/C)[C@@H](OC)C(=O)[C@@H]1CC[C@@](O)(CO)[C@H]21	> 20 µM	Non-Toxic	
C=C1C(=O)O[C@@H]2C[C@H]3CC/C=C(/C[C@@H](OC(=O)/C(C)=C/C)[C@@H]12)[C@H](O)OC3	> 20 µM	Non-Toxic	
C=C1C(=O)O[C@@H]2C[C@H](CO)CC/C=C(\CO)C[C@@H](O)[C@@H]12	> 20 µM	Non-Toxic	
C=C1C(=O)O[C@@H]2/C=C(\CO)CCC=C(CO)[C@H](OC(C)=O)[C@@H](OC(=O)C(C)C)[C@@H]12	10.2 µM	Non-Toxic	
C=C1C(=O)O[C@@H]2/C=C(\CO)CC/C=C(\CO)[C@H](OC(C)=O)[C@@H](OC(=O)/C(C)=C\C)[C@@H]12	9.3 µM	Non-Toxic	
C=C1C(=O)O[C@@H]2/C=C3/CC/C=C(\[C@H](O)OC3)[C@H](O)[C@@H](OC(=O)/C(C)=C/C)[C@@H]12	> 20 µM	Non-Toxic	
C=C1C(=O)O[C@@H]2C[C@H](CO)CC/C=C(\COC(=O)C(C)C)C[C@@H](O)[C@@H]12	> 20 µM	Non-Toxic	
C=C1C(=O)O[C@@H]2/C=C(\C)CC/C=C(\CO)C[C@@H](O)[C@@H]12	> 20 µM	Non-Toxic	
C=C1C(=O)O[C@@H]2/C=C(\CO)CC/C=C(\C=O)[C@H](OC(C)=O)[C@@H](OC(=O)/C(C)=C\C)[C@@H]12	16.5 µM	Non-Toxic	

The next lines start with results.

IC50 (RAW264.7 [1])	SMILES	Activity (RAW264.7 [2])	also measured
7.9 µM	C=C1C(=O)O[C@@H]2/C=C(\CO)CC/C=C(\C=O)[C@H](OC)[C@@H](OC(=O)/C(C)=C\C)[C@@H]12	Non-Toxic	
1.4 µM	C=C1C(=O)O[C@@H]2C[C@H](COC(=O)/C(C)=C\C)CC/C=C(\CO)C[C@@H](O)[C@@H]12	Non-Toxic	Activity (RAW264.7 [3]): Active; inhibition (RAW264.7 [4]): inactive; inhibition [5]: Dose-Dependent Effect; inhibition [6]: inactive; inhibition [7]: Active; inhibition [8]: inactive; inhibition (RAW264.7 [9]): Active; inhibition [10]: Active; inhibition [11]: Active; inhibition [12]: Dose-Dependent Effect; inhibition (RAW264.7 [1]; time 26.0 hrs): Dose-Dependent Effect; inhibition [13]: inactive; inhibition (RAW264.7 [14]): inactive; inhibition (RAW264.7 [15]): Dose-Dependent Effect; Activity [16]: Active; Activity (RAW264.7 [17]): Active; Activity (RAW264.7 [18]): Active; inhibition [19]: inactive; inhibition (RAW264.7 [20]): Active
3.4 µM	C=C1C(=O)O[C@@H]2C[C@H](CO)CCC=C(CO)C[C@@H](OC(=O)C(C)C)[C@@H]12	Non-Toxic	
9.1 µM	C=C1C(=O)O[C@@H]2/C=C(\CO)CC/C=C(\C=O)[C@H](O)[C@@H](OC(=O)/C(C)=C\C)[C@@H]12	Non-Toxic	
3.5 µM	COc1cc(/C=C/C(=O)CC(=O)/C=C/c2ccc(O)c(OC)c2)ccc1O [CURCUMIN]		inhibition (RAW264.7 [21]): Active; Activity (RAW264.7 [22]): Active; inhibition (RAW264.7 [23]): Active; Activity (RAW264.7 [24]): Active; Activity (RAW264.7 [25]): Active
6.9 µM	C=C1C(=O)O[C@@H]2C[C@H](CO)CC/C=C(\CO)C[C@@H](OC(=O)/C(C)=C/C)[C@@H]12	Non-Toxic	
2.7 µM	C=C(C)C(=O)O[C@@H]1C/C(CO)=C/CC[C@@H](CO)C[C@H]2OC(=O)C(=C)[C@H]12	Non-Toxic	
5.6 µM	C=C1C(=O)O[C@@H]2C[C@H](CO)CC/C=C(\CO)C[C@@H](OC(=O)C=C(C)C)[C@@H]12	Non-Toxic	
2.3 µM	C=C1C(=O)O[C@@H]2C[C@H](CO)CC/C=C(\CO)C[C@@H](OC(=O)/C(C)=C\C)[C@@H]12	Non-Toxic	
